The source of these data is patent US12084467B2, “Therapeutic compounds for HIV virus infection” (Gilead Sciences, Inc., priority 2021, dated 2024).

A short description of data set [1]: Kinetic solubility analysis (CLND: total chemiluminescent nitrogen determination). The settings on record: 1.0% DMSO, 24-hour incubation at ambient temperature, maximum theoretical concentration 100 μM; for pH 2 solubility: 0.1N HCl; for pH 7 solubility: 1×PBS buffer (pH 7.4).
A short description of data set [2]: Solubility in simulated intestinal fluids (FaSSIF / FeSSIF). To be noted: 25 °C, thermodynamic from solid.
[3] abbreviates: fasted state simulated intestinal fluid (FaSSIF), fassif.
Where [4] appears, read: fed state simulated intestinal fluid (FeSSIF), fessif.

Each structure is given as a SMILES string. In brackets after ≈: the same amount, converted by molar mass.

Regarding `CC(C)(C#Cc1ccc(-c2ccc(Cl)c3c(N(C(=O)[C@@H]4C[C@H]4C(=O)O)S(C)(=O)=O)nn(CC(F)(F)F)c23)c([C@H](Cc2cc(F)cc(F)c2)NC(=O)Cn2nc(C(F)(F)F)c3c2C(F)(F)[C@@H]2C[C@H]32)n1)S(C)(=O)=O` [Compound 16, (1R,2R)-2-((4-chloro-7-(2-((S)-1-(2-((3bS,4aR)-5,5-difluoro-3-(trifluoromethyl)-3b,4,4a,5-tetrahydro-1H-cyclopropa[3,4]cyclopenta[1,2-c]pyrazol-1-yl)acetamido)-2-(3,5-difluorophenyl)ethyl)-6-(3-methyl-3-(methylsulfonyl)but-1-yn-1-yl)pyridin-3-yl)-1-(2,2,2-trifluoroethyl)-1H-indazol-3-yl)(methylsulfonyl)carbamoyl)cyclopropane-1-carboxylic acid], in data set [1], the “pH 2 solubility” value was found to be 1 μM and the “pH 7 solubility” value was 44 μM. The compound also displayed a solubility in data set [2] (setting [3]) of 21 µg/mL (≈ 19.4 µM). Besides, the concentration in solution in data set [2] (setting [4]) (solubility) was 6 µg/mL (≈ 5.55 µM).

Consider `CC(C)(C#Cc1ccc(-c2ccc(Cl)c3c(N(C(=O)C4(C(=O)O)CC4)S(C)(=O)=O)nn(CC(F)(F)F)c23)c([C@H](Cc2cc(F)cc(F)c2)NC(=O)Cn2nc(C(F)(F)F)c3c2C(F)(F)[C@@H]2C[C@H]32)n1)S(C)(=O)=O` [Compound 18, 1-((4-chloro-7-(2-((S)-1-(2-((3bS,4aR)-5,5-difluoro-3-(trifluoromethyl)-3b,4,4a,5-tetrahydro-1H-cyclopropa[3,4]cyclopenta[1,2-c]pyrazol-1-yl)acetamido)-2-(3,5-difluorophenyl)ethyl)-6-(3-methyl-3-(methylsulfonyl)but-1-yn-1-yl)pyridin-3-yl)-1-(2,2,2-trifluoroethyl)-1H-indazol-3-yl)(methylsulfonyl)carbamoyl)cyclopropane-1-carboxylic acid], for which, in data set [1], the “pH 2 solubility” value is reported as 1 μM and the “pH 7 solubility” value was 8 μM. Also, in data set [2] (setting [3]), the concentration in solution (solubility) was 42 µg/mL (≈ 38.9 µM). This compound had a solubility in data set [2] (setting [4]) of 21 µg/mL (≈ 19.4 µM).

As to `CC(C)(C#Cc1ccc(-c2ccc(Cl)c3c(N(C(=O)c4ccccc4C(=O)OCOP(=O)(O)O)S(C)(=O)=O)nn(CC(F)(F)F)c23)c([C@H](Cc2cc(F)cc(F)c2)NC(=O)Cn2nc(C(F)(F)F)c3c2C(F)(F)[C@@H]2C[C@H]32)n1)S(C)(=O)=O` [Compound 19, (phosphonooxy)methyl 2-((4-chloro-7-(2-((S)-1-(2-((3bS,4aR)-5,5-difluoro-3-(trifluoromethyl)-3b,4,4a,5-tetrahydro-1H-cyclopropa[3,4]cyclopenta[1,2-c]pyrazol-1-yl)acetamido)-2-(3,5-difluorophenyl)ethyl)-6-(3-methyl-3-(methylsulfonyl)but-1-yn-1-yl)pyridin-3-yl)-1-(2,2,2-trifluoroethyl)-1H-indazol-3-yl)(methylsulfonyl)carbamoyl)benzoate], in data set [1], the “pH 2 solubility” value was determined as 2 μM and the “pH 7 solubility” value turned out to be 75 μM. The compound also yielded a solubility in data set [2] (setting [3]) of 816 µg/mL (≈ 665 µM). This compound yielded a solubility in data set [2] (setting [4]) of 487 µg/mL (≈ 397 µM).

On to `CC(C)(C#Cc1ccc(-c2ccc(Cl)c3c(N(C(=O)c4ccccc4CN(CCC(=O)O)C(=O)OCOP(=O)(O)O)S(C)(=O)=O)nn(CC(F)(F)F)c23)c([C@H](Cc2cc(F)cc(F)c2)NC(=O)Cn2nc(C(F)(F)F)c3c2C(F)(F)[C@@H]2C[C@H]32)n1)S(C)(=O)=O` [Compound 21, 3-((2-((4-chloro-7-(2-((S)-1-(2-((3bS,4aR)-5,5-difluoro-3-(trifluoromethyl)-3b,4,4a,5-tetrahydro-1H-cyclopropa[3,4]cyclopenta[1,2-c]pyrazol-1-yl)acetamido)-2-(3,5-difluorophenyl)ethyl)-6-(3-methyl-3-(methylsulfonyl)but-1-yn-1-yl)pyridin-3-yl)-1-(2,2,2-trifluoroethyl)-1H-indazol-3-yl)(methylsulfonyl)carbamoyl)benzyl)(((phosphonooxy)methoxy)carbonyl)amino)propanoi c acid], for which, in data set [1], the “pH 2 solubility” value worked out at 1 μM and the “pH 7 solubility” value turned out to be 100 μM. Besides, the concentration in solution in data set [2] (setting [3]) (solubility) was 1110 µg/mL (≈ 835 µM). Moreover, the concentration in solution in data set [2] (setting [4]) (solubility) was 1420 µg/mL (≈ 1070 µM).

Regarding `CC(C)(C#Cc1ccc(-c2ccc(Cl)c3c(N(C(=O)c4ccccc4COP(=O)(O)O)S(C)(=O)=O)nn(CC(F)(F)F)c23)c([C@H](Cc2cc(F)cc(F)c2)NC(=O)Cn2nc(C(F)(F)F)c3c2C(F)(F)[C@@H]2C[C@H]32)n1)S(C)(=O)=O` [Compound 22, 2-((4-chloro-7-(2-((S)-1-(2-((3bS,4aR)-5,5-difluoro-3-(trifluoromethyl)-3b,4,4a,5-tetrahydro-1H-cyclopropa[3,4]cyclopenta[1,2-c]pyrazol-1-yl)acetamido)-2-(3,5-difluorophenyl)ethyl)-6-(3-methyl-3-(methylsulfonyl)but-1-yn-1-yl)pyridin-3-yl)-1-(2,2,2-trifluoroethyl)-1H-indazol-3-yl)(methylsulfonyl)carbamoyl)benzyl dihydrogen phosphate], the “pH 2 solubility” value in data set [1] was 1 μM. In addition, the “pH 7 solubility” value in data set [1] is given as 100 μM. For the same compound, the solubility in data set [2] (setting [3]) was 618 µg/mL; in data set [2] (setting [4]), 534 µg/mL.

As for `CC(C)(C#Cc1ccc(-c2ccc(Cl)c3c(N(C(=O)N4CCOC[C@H]4C(=O)OCOP(=O)(O)O)S(C)(=O)=O)nn(CC(F)(F)F)c23)c([C@H](Cc2cc(F)cc(F)c2)NC(=O)Cn2nc(C(F)(F)F)c3c2C(F)(F)[C@@H]2C[C@H]32)n1)S(C)(=O)=O` [Compound 23, (phosphonooxy)methyl (S)-4-((4-chloro-7-(2-((S)-1-(2-((3bS,4aR)-5,5-difluoro-3-(trifluoromethyl)-3b,4,4a,5-tetrahydro-1H-cyclopropa[3,4]cyclopenta[1,2-c]pyrazol-1-yl)acetamido)-2-(3,5-difluorophenyl)ethyl)-6-(3-methyl-3-(methylsulfonyl)but-1-yn-1-yl)pyridin-3-yl)-1-(2,2,2-trifluoroethyl)-1H-indazol-3-yl)(methylsulfonyl)carbamoyl)morpholine-3-carboxylate], in data set [1], the “pH 2 solubility” value came out at 2 μM and the “pH 7 solubility” value worked out at 17 μM. Besides, in data set [2] (setting [3]), the solubility was 377 µg/mL (≈ 305 µM). Further, the solubility in data set [2] (setting [4]) is 139 µg/mL (≈ 113 µM).

As for `CC(C)(C#Cc1ccc(-c2ccc(Cl)c3c(N(C(=O)N4CC(C(=O)O)C4)S(C)(=O)=O)nn(CC(F)(F)F)c23)c([C@H](Cc2cc(F)cc(F)c2)NC(=O)Cn2nc(C(F)(F)F)c3c2C(F)(F)[C@@H]2C[C@H]32)n1)S(C)(=O)=O` [Compound 24, 1-((4-chloro-7-(2-((S)-1-(2-((3bS,4aR)-5,5-difluoro-3-(trifluoromethyl)-3b,4,4a,5-tetrahydro-1H-cyclopropa[3,4]cyclopenta[1,2-c]pyrazol-1-yl)acetamido)-2-(3,5-difluorophenyl)ethyl)-6-(3-methyl-3-(methylsulfonyl)but-1-yn-1-yl)pyridin-3-yl)-1-(2,2,2-trifluoroethyl)-1H-indazol-3-yl)(methylsulfonyl)carbamoyl)azetidine-3-carboxylic acid], in data set [1], the “pH 2 solubility” value turned out to be 1 μM and the “pH 7 solubility” value is 100 μM. This compound also yielded a solubility in data set [2] (setting [3]) of 75 µg/mL (≈ 68.5 µM). Also, in data set [2] (setting [4]), the concentration in solution (solubility) came to 21 µg/mL (≈ 19.2 µM).

On to `CC(C)(C#Cc1ccc(-c2ccc(Cl)c3c(N(C(=O)N4CCC[C@H]4COP(=O)(O)O)S(C)(=O)=O)nn(CC(F)(F)F)c23)c([C@H](Cc2cc(F)cc(F)c2)NC(=O)Cn2nc(C(F)(F)F)c3c2C(F)(F)[C@@H]2C[C@H]32)n1)S(C)(=O)=O` [Compound 29, ((S)-1-((4-chloro-7-(2-((S)-1-(2-((3bS,4aR)-5,5-difluoro-3-(trifluoromethyl)-3b,4,4a,5-tetrahydro-1H-cyclopropa[3,4]cyclopenta[1,2-c]pyrazol-1-yl)acetamido)-2-(3,5-difluorophenyl)ethyl)-6-(3-methyl-3-(methylsulfonyl)but-1-yn-1-yl)pyridin-3-yl)-1-(2,2,2-trifluoroethyl)-1H-indazol-3-yl)(methylsulfonyl)carbamoyl)pyrrolidin-2-yl)methyl dihydrogen phosphate], for which the “pH 2 solubility” value in data set [1] was 1 μM. For the same compound, the “pH 7 solubility” value in data set [1] is reported as 98 μM. Besides, the results for the solubility in data set [2] (setting [3]) and in data set [2] (setting [4]) were 802 µg/mL and 536 µg/mL, respectively.

`CC(C)(C#Cc1ccc(-c2ccc(Cl)c3c(N(C(=O)N4CCC[C@H]4CNC(=O)OCOP(=O)(O)O)S(C)(=O)=O)nn(CC(F)(F)F)c23)c([C@H](Cc2cc(F)cc(F)c2)NC(=O)Cn2nc(C(F)(F)F)c3c2C(F)(F)[C@@H]2C[C@H]32)n1)S(C)(=O)=O` [Compound 32, (phosphonooxy)methyl (((S)-1-((4-chloro-7-(2-((S)-1-(2-((3bS,4aR)-5,5-difluoro-3-(trifluoromethyl)-3b,4,4a,5-tetrahydro-1H-cyclopropa[3,4]cyclopenta[1,2-c]pyrazol-1-yl)acetamido)-2-(3,5-difluorophenyl)ethyl)-6-(3-methyl-3-(methylsulfonyl)but-1-yn-1-yl)pyridin-3-yl)-1-(2,2,2-trifluoroethyl)-1H-indazol-3-yl)(methylsulfonyl)carbamoyl)pyrrolidin-2-yl)methyl)carbamate]: the “pH 2 solubility” value in data set [1] stood at 1 μM. In data set [1], the “pH 7 solubility” value is on record as 100 μM. Besides, the results for the solubility in data set [2] (setting [3]) and in data set [2] (setting [4]) were 478 µg/mL (≈ 383 µM) and 306 µg/mL (≈ 245 µM), respectively.

Consider `CC(C)(C#Cc1ccc(-c2ccc(Cl)c3c(N(C(=O)N4CCC[C@H]4CN(CC(=O)O)C(=O)OCOP(=O)(O)O)S(C)(=O)=O)nn(CC(F)(F)F)c23)c([C@H](Cc2cc(F)cc(F)c2)NC(=O)Cn2nc(C(F)(F)F)c3c2C(F)(F)[C@@H]2C[C@H]32)n1)S(C)(=O)=O` [Compound 33, N—(((S)-1-((4-chloro-7-(2-((S)-1-(2-((3bS,4aR)-5,5-difluoro-3-(trifluoromethyl)-3b,4,4a,5-tetrahydro-1H-cyclopropa[3,4]cyclopenta[1,2-c]pyrazol-1-yl)acetamido)-2-(3,5-difluorophenyl)ethyl)-6-(3-methyl-3-(methylsulfonyl)but-1-yn-1-yl)pyridin-3-yl)-1-(2,2,2-trifluoroethyl)-1H-indazol-3-yl)(methylsulfonyl)carbamoyl)pyrrolidin-2-yl)methyl)-N-(((phosphonooxy)methoxy)carbonyl)glycine], for which, in data set [1], the “pH 2 solubility” value stood at 1 μM and the “pH 7 solubility” value stood at 100 μM. In data set [2] (fassif), this compound yielded a solubility of 5020 µg/mL (≈ 3840 µM).
